# pEC50, pIC50: −log10 of the molar value.
# Molecular target: NS5B polymerase (Hepatitis C virus genotype 1b, UniProt P26663)
# Assay: biochemical
# Conditions: NS5B polymerase inhibition; 20 nM enzyme, 75 min at 28° C.; read-out: IC50
# Chain of NS5B polymerase (P26663 2420-3010): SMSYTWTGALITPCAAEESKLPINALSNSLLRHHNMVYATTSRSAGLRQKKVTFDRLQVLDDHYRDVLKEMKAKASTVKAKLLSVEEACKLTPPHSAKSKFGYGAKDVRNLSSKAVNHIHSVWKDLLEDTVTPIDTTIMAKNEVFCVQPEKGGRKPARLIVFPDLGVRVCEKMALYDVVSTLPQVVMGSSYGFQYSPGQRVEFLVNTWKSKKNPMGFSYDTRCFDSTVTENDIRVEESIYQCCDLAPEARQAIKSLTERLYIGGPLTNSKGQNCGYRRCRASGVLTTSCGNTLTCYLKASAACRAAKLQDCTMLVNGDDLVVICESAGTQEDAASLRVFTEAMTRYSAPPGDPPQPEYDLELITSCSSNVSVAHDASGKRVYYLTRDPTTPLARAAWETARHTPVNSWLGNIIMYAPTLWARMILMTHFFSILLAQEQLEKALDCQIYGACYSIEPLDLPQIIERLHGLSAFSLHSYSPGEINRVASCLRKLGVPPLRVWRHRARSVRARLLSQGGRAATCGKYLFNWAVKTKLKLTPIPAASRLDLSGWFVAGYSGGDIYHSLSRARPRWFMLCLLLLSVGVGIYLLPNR
row,Structure (SMILES),pIC50
1,"CS(=O)(=O)Nc1ccc2c(c1)S(=O)(=O)N=C(C1=C(O)[C@@H]3[C@H]4CC[C@H](CC4)[C@@H]3N(Cc3ccc(F)cc3)C1=O)N2 (relative stereo) [Example 50, cis-N-{3-[3-(4-Fluoro-benzyl)-6-hydroxy-4-oxo-3-aza-tricyclo[6.2.2.0^2,7]dodec-5-en-5-yl]-1,1-dioxo-1,4-dihydro-1λ^6-benzo[1,2,4]thiadiazin-7-yl}-methanesulfonamide]",> 7.70
2,"CS(=O)(=O)Nc1ccc2c(c1)S(=O)(=O)N=C(C1=C(O)[C@@H]3C4CCC(CC4)[C@@H]3N(Cc3ccc(F)cc3)C1=O)N2 [Example 49, N-{3-[(2S,7R)-3-(4-Fluoro-benzyl)-6-hydroxy-4-oxo-3-aza-tricyclo[6.2.2.0^2,7]dodec-5-en-5-yl]-1,1-dioxo-1,4-dihydro-1λ^6-benzo[1,2,4]thiadiazin-7-yl}-methanesulfonamide]",> 7.70
3,"O=C1C(C2=NS(=O)(=O)c3cc(NS(=O)(=O)c4cccnc4)ccc3N2)=C(O)C2C([C@@H]3CC[C@H]2C3)N1Cc1ccc(F)cc1 (stereo partly drawn) [Example 54, Pyridine-3-sulfonic acid{3-[(1R,2S,7R,8S)-3-(4-fluoro-benzyl)-6-hydroxy-4-oxo-3-aza-tricyclo[6.2.1.0^2,7]undec-5-en-5-yl]-1,1-dioxo-1,4-dihydro-1λ^6-benzo[1,2,4]thiadiazin-7-yl}-amide]",6.00 to 7.00
4,"NS(=O)(=O)Nc1ccc2c(c1)S(=O)(=O)N=C(C1=C(O)[C@@H]3[C@H]4CC[C@H](C4)[C@@H]3N(Cc3ccc(F)cc3)C1=O)N2 [Example 55, (1R,2S,7R,8S)-N-{3-[3-(4-Fluoro-benzyl)-6-hydroxy-4-oxo-3-aza-tricyclo[6.2.1.0^2,7]undec-5-en-5-yl]-1,1-dioxo-1,4-dihydro-1λ^6-benzo[1,2,4]thiadiazin-7-yl}-sulfamide]",> 7.70
5,"CS(=O)(=O)Nc1ccc2c(c1)S(=O)(=O)N=C(C1=C(O)[C@@H]3[C@H]4CC[C@H](C4)[C@@H]3N(Cc3ccccc3)C1=O)N2 [Example 56, (1R,2S,7R,8S)-N-[3-(3-Benzyl-6-hydroxy-4-oxo-3-aza-tricyclo[6.2.1.0^2,7]undec-5-en-5-yl)-1,1-dioxo-1,4-dihydro-1λ^6-benzo[1,2,4]thiadiazin-7-yl]-methanesulfonamide]",> 7.70
6,"CC(C)CN1C(=O)C(C2=NS(=O)(=O)c3cc(NS(C)(=O)=O)ccc3N2)=C(O)[C@@H]2[C@H]3CC[C@H](C3)[C@@H]21 [Example 57, (1R,2S,7R,8S)-N-[3-(6-Hydroxy-3-isobutyl-4-oxo-3-aza-tricyclo[6.2.1.0^2,7]undec-5-en-5-yl)-1,1-dioxo-1,4-dihydro-1λ^6-benzo[1,2,4]thiadiazin-7-yl]-methanesulfonamide]",7.00 to 7.70
7,"CS(=O)(=O)Nc1ccc2c(c1)S(=O)(=O)N=C(C1=C(O)[C@@H]3[C@H]4CC[C@H](C4)[C@@H]3N(Cc3ccc(F)c(Cl)c3)C1=O)N2 [Example 58, (1R,2S,7R,8S)-N-{3-[3-(3-Chloro-4-fluoro-benzyl)-6-hydroxy-4-oxo-3-aza-tricyclo[6.2.1.0^2,7]undec-5-en-5-yl]-1,1-dioxo-1,4-dihydro-1λ^6-benzo[1,2,4]thiadiazin-7-yl}-methanesulfonamide]",> 7.70
8,"Cc1ccc(CN2C(=O)C(C3=NS(=O)(=O)c4cc(NS(C)(=O)=O)ccc4N3)=C(O)[C@@H]3[C@H]4CC[C@H](C4)[C@@H]32)cc1F [Example 60, N-{3-[(1R,2S,7R,8S)-3-(3-Fluoro-4-methyl-benzyl)-6-hydroxy-4-oxo-3-aza-tricyclo[6.2.1.0^2,7]undec-5-en-5-yl]-1,1-dioxo-1,4-dihydro-1λ^6-benzo[1,2,4]thiadiazin-7-yl}-methanesulfonamide]",7.00 to 7.70
9,O=C1C(C2=NS(=O)(=O)c3cc(Br)cnc3N2)=C(O)C2C([C@@H]3CC[C@H]2C3)N1Cc1ccc(F)cc1 (stereo partly shown) [Example 61],4.00 to 6.00
10,"CS(=O)(=O)Nc1cnc2c(c1)S(=O)(=O)N=C(C1=C(O)[C@@H]3[C@H]4CC[C@H](C4)[C@@H]3N(Cc3ccc(F)cc3)C1=O)N2 [Example 62, N-{3-[(1R,2S,7R,8S)-3-(4-Fluoro-benzyl)-6-hydroxy-4-oxo-3-aza-tricyclo[6.2.1.0^2,7]undec-5-en-5-yl]-1,1-dioxo-1,4-dihydro-1λ^6-pyrido[2,3-e][1,2,4]thiadiazin-7-yl}-methanesulfonamide]",7.00 to 7.70
11,"O=C1C(C2=NS(=O)(=O)c3cccnc3N2)=C(O)[C@@H]2[C@H]3CC[C@H](C3)[C@@H]2N1Cc1ccc(F)cc1 [Example 63, (1R,2S,7R,8S)-5-(1,1-Dioxo-1,4-dihydro-1λ^6-pyrido[2,3-e][1,2,4]thiadiazin-3-yl)-3-(4-fluoro-benzyl)-6-hydroxy-3-aza-tricyclo[6.2.1.0^2,7]undec-5-en-4-one]",6.00 to 7.00
12,"CS(=O)(=O)Nc1ccc2c(c1)S(=O)(=O)N=C(C1=C(O)[C@@H]3[C@H]4CC[C@H](C4)[C@@H]3N(CCC3CC3)C1=O)N2 [Example 66, N-{3-[(1R,2S,7R,8S)-3-(2-Cyclopropyl-ethyl)-6-hydroxy-4-oxo-3-aza-tricyclo[6.2.1.0^2,7]undec-5-en-5-yl]-1,1-dioxo-1,4-dihydro-1λ^6-benzo[1,2,4]thiadiazin-7-yl}-methanesulfonamide]",7.00 to 7.70

# Test system: not given
# Assay: not given
# Conditions: not given
row,Structure (SMILES),melting point [°C]
1,"CS(=O)(=O)Nc1ccc2c(c1)S(=O)(=O)N=C(C1=C(O)[C@@H]3[C@H]4CC[C@H](CC4)[C@@H]3N(Cc3ccc(F)cc3)C1=O)N2 (relative stereo) [Example 50, cis-N-{3-[3-(4-Fluoro-benzyl)-6-hydroxy-4-oxo-3-aza-tricyclo[6.2.2.0^2,7]dodec-5-en-5-yl]-1,1-dioxo-1,4-dihydro-1λ^6-benzo[1,2,4]thiadiazin-7-yl}-methanesulfonamide]",203.8 to 205.7
2,"CS(=O)(=O)Nc1ccc2c(c1)S(=O)(=O)N=C(C1=C(O)[C@@H]3C4CCC(CC4)[C@@H]3N(Cc3ccc(F)cc3)C1=O)N2 [Example 49, N-{3-[(2S,7R)-3-(4-Fluoro-benzyl)-6-hydroxy-4-oxo-3-aza-tricyclo[6.2.2.0^2,7]dodec-5-en-5-yl]-1,1-dioxo-1,4-dihydro-1λ^6-benzo[1,2,4]thiadiazin-7-yl}-methanesulfonamide]",203.8 to 205.7

# Test system: HCV replicon
# Assay: HCV replicon assay
# Type: cell-based
# Conditions: Hepatitis C virus; Example numbers 64 and 65 in Table 1; HCV replicon cells, 72 hours exposure; read-out: EC50 (HCV replicon inhibition)
# Procedure: HCV Replicon Assay (Replicon EC50 (μM))
# The cell culture component of the assay is performed essentially as described by Bartenschlager et al., Hepatology 2002, 35, 694-703, wherein exponentially growing HCV Huh-7/C24 replicon cells are seeded at 4.5×10^3 cells/well in 96 well plates and 24 hours later are treated with six point half-log concentration of compound. After 72 hours exposure the media is discarded from the compound assay plate and the cell monolayers are lysed by addition of 150 µL lysis mixture (Genospectra) with incubation at 53° C. for 45 minutes. Following incubation, each lysate is thoroughly mixed and 5 µl (NS3 probe) or 10 µL (GAPDH probe) of each lysate is then transferred to the capture plate and analyzed by bDNA assay.
# Branched DNA (bDNA) Assay […]
# After subsequent addition of the chemilumigenic substrate (dioxetan), each plate is read by luminometer (Wallac 1420 Multilabel HTS Counter Victor 2). The luminescence signal is proportional to the amount of mRNA present in each lysate. In addition to the samples, cell lysate only (no probe) background controls are also included on each bDNA assay plate and the average signal from these control wells is subtracted from the sample reading prior to analysis. Percent of no drug control is determined for both the NS3 and GAPDH signals for each compound also. […]
row,Structure (SMILES),pEC50
1,"O=C1C(C2=NS(=O)(=O)c3cnccc3N2)=C(O)[C@@H]2[C@H]3CC[C@H](C3)[C@@H]2N1Cc1ccc(F)cc1 [Example 64, (1R,2S,7R,8S)-5-(1,1-Dioxo-1,4-dihydro-1λ^6-pyrido[4,3-e][1,2,4]thiadiazin-3-yl)-3-(4-fluoro-benzyl)-6-hydroxy-3-aza-tricyclo[6.2.1.0^2,7]undec-5-en-4-one]",6.00 to 7.00
2,"O=C1C(C2=NS(=O)(=O)c3ncccc3N2)=C(O)[C@@H]2[C@H]3CC[C@H](C3)[C@@H]2N1Cc1ccc(F)cc1 [Example 65, (1R,2S,7R,8S)-5-(1,1-Dioxo-1,4-dihydro-1λ^6-pyrido[3,2-e][1,2,4]thiadiazin-3-yl)-3-(4-fluoro-benzyl)-6-hydroxy-3-aza-tricyclo[6.2.1.0^2,7]undec-5-en-4-one]",6.00 to 7.00
